From patent publication US20090062403A1, “Compositions and Methods for Treatment of Disorders of Protein Aggregation” (priority 2004, published 2009)

Test system: TgCRND8 mice
Conditions: mouse, in vivo
Procedure: Mice. […] This initial dosage was chosen based upon the dosage of myo-cyclohexanehexol (6-18 grams/day/adult or 86-257 mg/Kg/day) that is typically administered to human patients for various psychiatric disorders. […] A cohort of animals (n=10 mice per treatment arm) entered the study at five months of age, and outcomes were then analyzed after one month of treatment. The body weight, coat characteristics and in cage behaviour were monitored. Mannitol was used as a negative control for potential alterations in caloric intake. All experiments were performed according to the Canadian Council on Animal Care guidelines. Behavioural tests: Morris Water Maze testing was performed as previously described. […] Duration of walking, pausing and grooming were analyzed as indices of spontaneous locomotor activity. […] Latency to fall was recorded in four daily trials, conducted at 30 min intervals. […] Amyloid plaque burden was assessed with LecoIA-3001 image analysis software interfaced with Leica microscope and Hitachi KP-M1U CCD video camera. […] Vascular amyloid burden was defined as amyloid originating from or surrounding blood vessels and was analysed similarly. […] After neutralization, the samples were diluted and analyzed for Aβ40 and Aβ42 using commercially available kits (BIOSOURCE International). Each hemisphere was analyzed in triplicate and the mean values±SEM reported. […] Gliosis Quantitation. […]

## 1,3,5/2,4,6-(scyllo-) cyclohexanehexol [Scyllo-cyclohexanehexol]
  grooming or activity in the open field test: no effect on grooming or activity
  sensorimotor function (Rotarod), treated vs untreated TgCRND8 mice: no difference
